Assay results from the supplement of paper PMC12463676, “Small-molecule dissolution of stress granules by redox modulation benefits ALS models” (Nature Chemical Biology, 2025).

What was measured:
potassium arsenate = compound: O=[As]([O-])(O)O.[K+] [potassium arsenate]; assay: thermal stability z-score vs DMSO; higher = more thermally stabilized by treatment; conditions: HeLa; arsenate concentration 1 mM
Experimental: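 Cellular thermal proteome profiling in HeLa cells treated with 1 mM arsenate for 1 h (DMSO pretreatment), heated to ten temperatures (37-66.3 °C). Soluble protein was quantified by TMT mass spectrometry relative to DMSO controls; the thermal stability score was transformed to a z-score; mean of n = 3 experiments.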

lipoamide = compound: NC(=O)CCCCC1CCSS1 [lipoamide]; assay: as above; conditions: HeLa, lipoamide concentration 100 µM
Experimental: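 Cellular thermal proteome profiling in HeLa cells. Cells were treated with 100 µM lipoamide for 1 h, with or without 1 mM arsenate for a further 1 h, then heated to ten temperatures (37-66.3 °C), and soluble protein was quantified by TMT mass spectrometry relative to 0.1% DMSO controls. The thermal stability score (sum of log2 fold changes minus the abundance score) was transformed to a z-score; mean of n = 3 experiments.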

[1] = arsenate co-treatment: 1 mM arsenate 1 h
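Also: each temperature applied for 3 min, abundance score taken as mean log2 fold change at the two lowest temperatures, z-score obtained by mean subtraction and division by SD.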

Sequence of UniProt Q96F63 (Q96F63 whole entry): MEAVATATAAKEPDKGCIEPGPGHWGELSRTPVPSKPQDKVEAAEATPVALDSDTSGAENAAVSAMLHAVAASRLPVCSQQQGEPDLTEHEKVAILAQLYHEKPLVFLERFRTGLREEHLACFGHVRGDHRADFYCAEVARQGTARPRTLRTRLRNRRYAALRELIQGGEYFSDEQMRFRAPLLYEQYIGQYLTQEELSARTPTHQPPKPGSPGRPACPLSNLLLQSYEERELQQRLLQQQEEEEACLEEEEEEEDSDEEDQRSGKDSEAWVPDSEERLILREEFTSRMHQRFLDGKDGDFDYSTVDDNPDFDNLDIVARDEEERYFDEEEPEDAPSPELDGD
Sequence of UniProt Q96BQ5 (Q96BQ5 whole entry): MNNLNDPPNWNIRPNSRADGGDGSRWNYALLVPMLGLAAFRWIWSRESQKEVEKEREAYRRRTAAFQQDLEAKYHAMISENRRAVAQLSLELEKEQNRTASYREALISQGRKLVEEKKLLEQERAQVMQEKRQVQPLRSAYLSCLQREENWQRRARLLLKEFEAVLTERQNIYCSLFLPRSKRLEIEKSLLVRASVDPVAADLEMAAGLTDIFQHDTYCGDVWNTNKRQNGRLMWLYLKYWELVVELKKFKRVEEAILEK
Sequence of UniProt Q96A19 (Q96A19 whole entry): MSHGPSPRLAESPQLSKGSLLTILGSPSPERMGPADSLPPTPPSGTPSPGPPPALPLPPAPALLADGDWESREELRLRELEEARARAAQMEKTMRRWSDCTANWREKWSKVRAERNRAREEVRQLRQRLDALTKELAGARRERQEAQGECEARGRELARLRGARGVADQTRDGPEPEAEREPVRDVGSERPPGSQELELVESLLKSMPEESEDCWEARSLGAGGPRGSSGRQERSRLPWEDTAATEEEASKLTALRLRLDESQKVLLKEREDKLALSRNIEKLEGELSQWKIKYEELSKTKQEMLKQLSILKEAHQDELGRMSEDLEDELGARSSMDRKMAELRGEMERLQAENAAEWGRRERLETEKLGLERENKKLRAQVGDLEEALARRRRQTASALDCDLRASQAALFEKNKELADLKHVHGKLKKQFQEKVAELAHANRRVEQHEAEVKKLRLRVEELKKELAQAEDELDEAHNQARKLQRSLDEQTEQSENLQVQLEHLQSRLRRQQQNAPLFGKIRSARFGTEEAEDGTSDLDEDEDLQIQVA
Sequence of UniProt Q9Y3X0 (Q9Y3X0 whole entry): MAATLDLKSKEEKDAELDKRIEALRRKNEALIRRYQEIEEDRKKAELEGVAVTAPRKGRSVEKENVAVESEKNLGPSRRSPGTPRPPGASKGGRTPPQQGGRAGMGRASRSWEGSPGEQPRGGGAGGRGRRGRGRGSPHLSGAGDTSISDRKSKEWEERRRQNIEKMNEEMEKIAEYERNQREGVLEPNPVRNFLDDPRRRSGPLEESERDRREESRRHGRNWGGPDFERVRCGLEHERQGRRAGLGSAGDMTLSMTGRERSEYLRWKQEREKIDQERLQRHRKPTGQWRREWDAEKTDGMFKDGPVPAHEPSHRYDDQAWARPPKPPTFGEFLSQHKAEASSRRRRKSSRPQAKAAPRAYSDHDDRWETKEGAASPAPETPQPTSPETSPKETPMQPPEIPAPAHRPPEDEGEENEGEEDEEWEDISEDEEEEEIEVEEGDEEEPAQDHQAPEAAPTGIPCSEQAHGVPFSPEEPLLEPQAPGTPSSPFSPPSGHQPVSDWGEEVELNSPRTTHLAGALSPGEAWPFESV
Sequence of UniProt Q9P031 (Q9P031 whole entry): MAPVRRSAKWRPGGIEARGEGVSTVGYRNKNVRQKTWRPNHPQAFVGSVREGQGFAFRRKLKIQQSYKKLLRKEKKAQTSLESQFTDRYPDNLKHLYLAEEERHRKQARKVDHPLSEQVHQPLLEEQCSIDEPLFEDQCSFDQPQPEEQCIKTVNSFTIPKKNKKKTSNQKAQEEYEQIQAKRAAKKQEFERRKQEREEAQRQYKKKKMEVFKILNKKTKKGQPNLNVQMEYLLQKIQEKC
Sequence of UniProt Q8IVM0 (Q8IVM0 whole entry): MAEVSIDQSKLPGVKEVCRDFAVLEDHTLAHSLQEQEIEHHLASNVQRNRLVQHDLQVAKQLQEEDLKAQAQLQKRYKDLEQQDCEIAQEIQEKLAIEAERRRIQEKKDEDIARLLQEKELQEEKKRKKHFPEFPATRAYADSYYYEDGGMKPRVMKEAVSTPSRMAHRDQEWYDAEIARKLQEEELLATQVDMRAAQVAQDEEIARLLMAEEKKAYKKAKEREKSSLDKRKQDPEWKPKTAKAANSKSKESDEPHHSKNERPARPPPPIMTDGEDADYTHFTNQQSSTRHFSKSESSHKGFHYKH
Sequence of UniProt Q96MW1 (Q96MW1 whole entry): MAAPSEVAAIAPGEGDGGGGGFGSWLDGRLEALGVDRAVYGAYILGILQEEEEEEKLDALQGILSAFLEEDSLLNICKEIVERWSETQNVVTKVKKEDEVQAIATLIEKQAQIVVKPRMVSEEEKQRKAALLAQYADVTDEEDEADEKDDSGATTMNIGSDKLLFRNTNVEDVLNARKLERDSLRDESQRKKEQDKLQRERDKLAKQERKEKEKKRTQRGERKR
Sequence of UniProt Q96ER9 (Q96ER9 whole entry): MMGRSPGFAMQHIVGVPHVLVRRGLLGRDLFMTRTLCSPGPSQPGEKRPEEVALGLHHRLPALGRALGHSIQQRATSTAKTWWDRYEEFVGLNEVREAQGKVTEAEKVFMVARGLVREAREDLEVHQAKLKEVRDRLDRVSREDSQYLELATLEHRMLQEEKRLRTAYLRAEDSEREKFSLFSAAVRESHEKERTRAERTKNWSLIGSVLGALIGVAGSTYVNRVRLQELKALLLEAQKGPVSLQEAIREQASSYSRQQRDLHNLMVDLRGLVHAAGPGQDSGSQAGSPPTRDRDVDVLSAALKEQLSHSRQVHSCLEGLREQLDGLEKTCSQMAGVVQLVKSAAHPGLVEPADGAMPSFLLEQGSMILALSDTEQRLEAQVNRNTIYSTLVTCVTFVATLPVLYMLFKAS
Sequence of UniProt O60563 (O60563 whole entry): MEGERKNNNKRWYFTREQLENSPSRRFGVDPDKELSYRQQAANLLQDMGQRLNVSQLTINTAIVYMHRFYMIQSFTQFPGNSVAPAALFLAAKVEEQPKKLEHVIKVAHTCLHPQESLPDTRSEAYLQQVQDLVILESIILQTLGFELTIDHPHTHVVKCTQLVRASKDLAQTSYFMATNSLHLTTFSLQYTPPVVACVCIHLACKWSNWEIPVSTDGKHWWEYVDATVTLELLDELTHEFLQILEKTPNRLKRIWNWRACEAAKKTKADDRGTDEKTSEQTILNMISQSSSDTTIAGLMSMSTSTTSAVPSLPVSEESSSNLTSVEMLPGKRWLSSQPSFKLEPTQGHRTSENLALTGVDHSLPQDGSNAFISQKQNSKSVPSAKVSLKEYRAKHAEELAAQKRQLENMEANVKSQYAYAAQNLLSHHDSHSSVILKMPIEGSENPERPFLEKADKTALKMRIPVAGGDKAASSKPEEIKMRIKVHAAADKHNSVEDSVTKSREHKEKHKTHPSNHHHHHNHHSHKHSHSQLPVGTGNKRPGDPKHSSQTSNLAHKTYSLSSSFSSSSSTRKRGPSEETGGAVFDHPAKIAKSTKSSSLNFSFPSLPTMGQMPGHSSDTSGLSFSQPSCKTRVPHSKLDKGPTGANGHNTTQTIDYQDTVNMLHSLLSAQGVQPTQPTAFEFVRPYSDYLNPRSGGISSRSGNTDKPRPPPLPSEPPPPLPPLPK
Sequence of UniProt P48643 (P48643 whole entry): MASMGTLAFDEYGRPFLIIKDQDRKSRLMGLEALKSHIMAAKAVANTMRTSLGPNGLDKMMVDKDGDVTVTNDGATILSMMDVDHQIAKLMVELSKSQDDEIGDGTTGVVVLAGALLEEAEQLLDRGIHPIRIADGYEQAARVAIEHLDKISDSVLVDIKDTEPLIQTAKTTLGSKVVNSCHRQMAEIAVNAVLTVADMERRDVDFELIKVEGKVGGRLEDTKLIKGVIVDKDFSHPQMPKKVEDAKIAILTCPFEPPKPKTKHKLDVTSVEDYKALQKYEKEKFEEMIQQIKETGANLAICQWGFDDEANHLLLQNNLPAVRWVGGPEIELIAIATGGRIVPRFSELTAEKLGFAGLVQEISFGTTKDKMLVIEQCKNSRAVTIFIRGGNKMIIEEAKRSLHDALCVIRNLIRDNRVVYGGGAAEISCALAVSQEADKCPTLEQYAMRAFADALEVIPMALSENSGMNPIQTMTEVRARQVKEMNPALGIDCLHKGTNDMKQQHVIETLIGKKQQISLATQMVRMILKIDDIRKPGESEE
Sequence of UniProt Q13185 (Q13185 whole entry): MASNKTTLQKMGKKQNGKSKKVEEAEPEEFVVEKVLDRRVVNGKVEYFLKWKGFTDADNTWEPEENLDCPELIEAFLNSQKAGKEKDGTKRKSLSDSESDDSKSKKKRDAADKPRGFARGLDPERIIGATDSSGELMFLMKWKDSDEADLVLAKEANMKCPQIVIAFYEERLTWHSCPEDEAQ
Sequence of UniProt O60826 (O60826 whole entry): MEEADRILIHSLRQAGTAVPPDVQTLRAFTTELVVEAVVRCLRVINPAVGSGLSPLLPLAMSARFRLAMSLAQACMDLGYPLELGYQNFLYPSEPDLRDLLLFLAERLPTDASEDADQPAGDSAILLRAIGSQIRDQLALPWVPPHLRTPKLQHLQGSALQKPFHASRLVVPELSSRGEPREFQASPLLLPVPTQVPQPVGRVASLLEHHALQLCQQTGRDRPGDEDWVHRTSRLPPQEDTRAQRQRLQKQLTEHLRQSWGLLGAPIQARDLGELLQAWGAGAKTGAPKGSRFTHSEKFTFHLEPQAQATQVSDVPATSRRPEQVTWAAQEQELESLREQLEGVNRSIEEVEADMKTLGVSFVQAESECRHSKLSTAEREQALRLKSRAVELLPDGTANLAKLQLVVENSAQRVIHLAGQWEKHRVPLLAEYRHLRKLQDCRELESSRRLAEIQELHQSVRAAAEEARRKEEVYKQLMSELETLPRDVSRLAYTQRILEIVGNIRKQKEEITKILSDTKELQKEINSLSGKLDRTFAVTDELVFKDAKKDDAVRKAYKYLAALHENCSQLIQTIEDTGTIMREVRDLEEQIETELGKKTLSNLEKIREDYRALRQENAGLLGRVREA

Target	thermal stability z-score (potassium arsenate)	thermal stability z-score (lipoamide; [1])	thermal stability z-score (lipoamide; arsenate co-treatment: none)
CBR1 (UniProt P16152)	0.879	0.136	0.208
CBR3 (UniProt O75828)	0.282	0.347	-0.0437
CBR4 (UniProt Q8N4T8)	0.168	-0.276	0.0911
CBSL|CBS	0.256	-1.81	-1.33
CBX1 (UniProt P83916)	0.0814	0.402	0.214
CBX3 (UniProt Q13185)	1.76	0.366	0.43
CBX4 (UniProt O00257)	0.529	-0.406	0.212
CBX5 (UniProt P45973)	-0.0201	-0.00136	0.383
CBX8 (UniProt Q9HC52)	-0.0579	0.035	0.14
CC2D1A (UniProt Q6P1N0)	-0.0172	0.117	0.0816
CC2D1B (UniProt Q5T0F9)	-0.125	-0.661	-0.8
CCAR1 (UniProt Q8IX12)	-0.106	0.657	0.27
CCAR2 (UniProt Q8N163)	0.358	-0.42	-0.615
CCBL1|KYAT1	0.447	0.0425	0.343
CCDC6 (UniProt Q16204)	-0.505	-0.497	-0.185
CCDC9 (UniProt Q9Y3X0)	-0.162	1.57	1.4
CCDC12 (UniProt Q8WUD4)	-0.605	0.646	0.397
CCDC18 (UniProt Q5T9S5)	0.0398	0.0532	-0.042
CCDC22 (UniProt O60826)	0.0749	-0.152	-0.59
CCDC25 (UniProt Q86WR0)	0.439	0.415	0.668
CCDC43 (UniProt Q96MW1)	0.864	0.776	0.412
CCDC47 (UniProt Q96A33)	-1.21	-0.4	-0.332
CCDC50 (UniProt Q8IVM0)	-0.0338	0.557	0.248
CCDC51 (UniProt Q96ER9)	-0.324	-0.68	-0.14

Target	thermal stability z-score (potassium arsenate)	thermal stability z-score (lipoamide; [1])	thermal stability z-score (lipoamide; arsenate co-treatment: none)
CCDC53 (UniProt Q9Y3C0)	-0.495	-0.425	-1.22
CCDC58 (UniProt Q4VC31)	0.303	0.552	0.284
CCDC59 (UniProt Q9P031)	1.06	-0.52	-0.816
CCDC85B (UniProt Q15834)	0.125	0.574	0.223
CCDC85C (UniProt A6NKD9)	-0.0463	0.0231	0.186
CCDC86 (UniProt Q9H6F5)	-2.01	-0.342	-0.895
CCDC88A (UniProt Q3V6T2)	1.3	1.49	0.586
CCDC90B (UniProt Q9GZT6)	0.136	0.364	0.229
CCDC91 (UniProt Q7Z6B0)	1.21	0.136	0.181
CCDC93 (UniProt Q567U6)	0.0272	-0.728	-0.078
CCDC94 (UniProt Q9BW85)	-0.951	-0.377	-0.352
CCDC97 (UniProt Q96F63)	-0.925	-0.00687	0.225
CCDC102A (UniProt Q96A19)	-0.327	-0.156	-0.283
CCDC115 (UniProt Q96NT0)	-0.392	0.112	0.611
CCDC117 (UniProt Q8IWD4)	-0.388	-0.191	-0.317
CCDC124 (UniProt Q96CT7)	-0.605	0.0112	-0.0241
CCDC127 (UniProt Q96BQ5)	-0.192	-0.707	-0.371
CCDC134 (UniProt Q9H6E4)	-0.0932	-2.13	-1.37
CCDC137 (UniProt Q6PK04)	-1.66	-0.531	-0.941
CCDC167 (UniProt Q9P0B6)	0.0429	-0.711	-1.16
CCDC174 (UniProt Q6PII3)	-0.984	-0.407	-0.734
CCDC186 (UniProt Q7Z3E2)	0.0522	-0.0502	-0.00496
CCDC191 (UniProt Q8NCU4)	-0.189	0.286	-0.0683
CCNA2 (UniProt P20248)	1.25	1.41	0.18

Target	thermal stability z-score (potassium arsenate)	thermal stability z-score (lipoamide; [1])	thermal stability z-score (lipoamide; arsenate co-treatment: none)
CCNB1 (UniProt P14635)	1.43	0.729	0.477
CCNB2 (UniProt O95067)	0.36	0.346	-0.108
CCND1 (UniProt P24385)	0.0378	-0.0213	-0.202
CCND3 (UniProt P30281)	-0.0207	0.241	0.374
CCNDBP1 (UniProt O95273)	0.133	0.104	-0.0265
CCNH (UniProt P51946)	0.325	-0.00877	0.0852
CCNK (UniProt O75909)	-0.771	0.743	-0.222
CCNT1 (UniProt O60563)	0.178	0.149	0.145
CCPG1 (UniProt Q9ULG6)	0.351	-2.1	-2.44
CCS (UniProt O14618)	3.23	1.32	0.653
CCSMST1 (UniProt Q4G0I0)	0.624	2.5	2.37
CCT2 (UniProt P78371)	-0.0294	0.119	-0.107
CCT3 (UniProt P49368)	0.00358	0.066	-0.106
CCT4 (UniProt P50991)	-0.223	-0.0959	-0.205
CCT5 (UniProt P48643)	0.118	-0.0313	-0.053
CCT6A (UniProt P40227)	-0.174	0.06	-0.18
CCT7 (UniProt Q99832)	-0.275	-0.0924	-0.191
CCT8 (UniProt P50990)	-0.245	-0.0223	-0.0937
CCZ1B|CCZ1	0.404	0.296	0.0817
CD2AP (UniProt Q9Y5K6)	0.988	0.591	0.887
CD2BP2 (UniProt O95400)	0.94	0.994	0.894
CD3EAP (UniProt O15446)	-3.13	0.354	-0.286
CD9 (UniProt P21926)	0.251	1.93	1.62
